Assay results as given in PubChem BioAssay (NCI).
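Cells were grown in 96-well plates and exposed to each compound for 48 hours at five concentrations; endpoints were interpolated linearly between bracketing concentrations, or set to the highest concentration if not reached. GI50 = concentration required for 50% inhibition of growth. TGI marks complete inhibition of growth.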

What was measured:
Test in all cases: NCI-60 cell line screen, 48 h
[1] = system: SK-MEL-2 melanoma
[2] = system: OVCAR-8 ovarian
[3] = system: EKVX NSCLC
[4] = system: SK-MEL-28 melanoma
[5] = system: LOX IMVI melanoma
[6] = system: OVCAR-4 ovarian
[7] = system: SF-539 CNS
[8] = system: OVCAR-3 ovarian
[9] = system: HOP-92 NSCLC
[10] = system: HL-60(TB) leukemia

Row | Compound | TGI [1] [µM] | TGI [2] [µM] | TGI [3] [µM] | TGI [4] [µM] | TGI [5] [µM] | TGI [6] [µM] | TGI [7] [µM] | TGI [8] [µM] | TGI [9] [µM] | TGI [10] [µM] | GI50 [1] [µM] | GI50 [2] [µM] | GI50 [3] [µM] | GI50 [4] [µM] | GI50 [10] [µM] | GI50 [5] [µM] | GI50 [6] [µM] | GI50 [7] [µM] | GI50 [8] [µM] | GI50 [9] [µM]
1 | CC(C)(CN1CCCCC1)C(=O)CC(SCCN)c1ccc(Cl)cc1 (stereo not drawn) | 3.32 | 5.45 | 4.53 | 13 | 4.85 | 10.1 | 4.21 | 3.96 |  |  |  |  |  |  |  |  |  |  |  | 
2 | O=C(Cc1ccccc1)NN1C(=O)C(Cl)C1c1cccc([N+](=O)[O-])c1 (stereo not drawn) | > 73.8 | > 100 | > 100 | > 100 |  | > 92.9 | > 100 | > 86.8 | 30.5 | 29.5 |  |  |  |  |  |  |  |  |  | 
3 | COc1ncc(-c2ccc3nccc(C#CCN4CCN(S(C)(=O)=O)CC4)c3c2)cc1NS(=O)(=O)c1ccc(F)cc1F | 1.13 | 11.7 | 12.4 | 0.843 | 1.41 | 12 | 0.272 | 0.982 |  | 1.81 | 0.116 | 0.256 | 0.146 | 0.0256 | 0.0257 | 0.0956 | 0.264 | 0.0398 | 0.0466 | 
4 | Cc1ccc(NC(=O)c2nc(S(C)(=O)=O)oc2-c2ccc(F)cc2)cc1Nc1ccc2ncn(C)c(=O)c2c1 | 3.29 |  |  | 3.4 |  |  | 3.14 |  | 3.87 | 5.2 | 1.59 |  |  | 1.74 | 2.11 |  |  | 1.65 |  | 1.91
5 | CC(=O)SC(SC(C)=O)SC(C)=O | > 100 | > 100 | > 100 | > 100 | > 100 | > 100 | > 100 | > 100 |  | > 100 |  |  |  |  |  |  |  |  |  | 
6 | O=C(c1cccs1)c1nc2cc(Cl)ccc2[n+]([O-])c1C(F)(F)F | > 100 | > 100 | > 100 | > 100 | > 100 | > 100 | > 100 | > 100 |  | > 100 | 51.2 | > 100 | 51.8 | > 100 | > 100 | > 100 | > 100 | > 100 | > 100 | 
7 | CC(=O)CC(=O)NC=O | > 100 | > 100 | > 100 | > 100 |  | > 100 | > 100 | > 100 | > 100 | > 100 |  |  |  |  |  |  |  |  |  | 
8 | O=C(N/C=C/C=C/Sc1ccccc1)OCc1ccccc1 |  | 29.5 | 53.6 | 34.3 | 32 | 57 | 30.4 | 32 | 52.7 | > 100 |  |  |  |  |  |  |  |  |  | 
9 | O=Cc1ccc(-c2ccc(-c3ccc(C=O)o3)[se]2)o1 | > 100 | > 100 |  | > 100 | > 100 | > 100 | > 100 | > 100 | > 100 | > 100 | > 100 | > 100 |  | > 100 | > 100 | > 100 | > 100 | > 100 | > 100 | 57.1
10 | O=C(O)c1cn(C2CC2)c2cc(N3CCN(C(=O)Nc4nc(-c5ccc(Br)cc5)cs4)CC3)c(F)cc2c1=O |  | > 100 |  | > 100 | > 100 |  | > 100 | > 100 | 6.88 |  |  | 3.72 |  | 4.08 |  | 1.09 |  | 1.56 | 1.42 | 2
11 | O=c1[nH]c(F)nc2c1ncn2C1OC(CO)C(O)C1O (stereo not drawn) |  | > 100 |  | > 100 | > 100 |  | 80.3 | > 100 | > 100 | > 100 |  | > 100 |  | > 100 | > 100 | > 100 |  | 23.9 | > 100 | > 100
12 | FC(F)(F)c1ccc(-c2ncc(-c3ccc(C(F)(F)F)cc3)c(NCc3cc(C(F)(F)F)cc(C(F)(F)F)c3)n2)cc1 | 8.93 | > 100 |  | > 100 | 26.2 | > 100 | > 100 | 16 | 5.05 | 36.2 | 2.84 | 3.8 |  | 5.85 | 4.79 | 3.4 | 4.11 | 7.71 | 3.39 | 1.7
13 | FC(F)(F)c1cc(-c2ncn(/C=C\c3nnco3)n2)cc(C(F)(F)F)c1 | 0.251 | > 47.7 |  | 49.3 | 3.82 |  | 0.0744 | 1.42 | 4.87 | 13.4 | 0.031 | 0.0589 |  | 0.125 | 0.0485 | 0.0902 | 0.0442 | 0.0197 | 0.06 | 0.0391
14 | C#CCn1c(=O)c2cccnc2n(CC#C)c1=O | > 100 |  |  | > 100 | > 100 | > 100 |  |  | > 100 | > 100 |  |  |  |  |  |  |  |  |  | 
15 | O=C(O)CCC1CCc2cccc(OCC(=O)O)c2C1=O (stereo not drawn) |  | > 100 | > 100 | > 100 | > 100 | > 100 | > 100 | > 100 | > 100 | > 100 |  |  |  |  |  |  |  |  |  | 
16 | CCCCCCc1cc2cc(-c3csc(/C=C/c4ccccc4)n3)c(=O)oc2cc1O | 41.1 | 9.55 |  | 24.9 | 12.8 | 13.7 | 23 | 9.98 | 17.7 | 30.4 | 18.1 | 2.79 |  | 10.6 | 4.79 | 3.29 | 3.56 | 10 | 3.52 | 4.32
17 | CCC(C)CC(C)C(=O)c1c(O)ccn(O)c1=O (stereo not drawn) | 48.6 | > 100 |  | > 100 | > 100 | > 100 | 8.08 | 45.3 | 33.7 | 12.6 | 3.63 | 0.626 |  | 2.27 | 0.473 | 0.804 | 0.561 | 1.04 | 0.415 | 0.686
18 | Fc1ccc(C2SCc3nc4ccccc4n32)cc1F (stereo not drawn) | 63.7 | > 100 | > 100 | 66.7 |  | 98.9 | > 100 | > 100 |  | 26.2 |  |  |  |  |  |  |  |  |  | 
